We go through eleven compounds from ChEMBL document CHEMBL1201862, “PubChem BioAssay data set” (2004).

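All cell lines were grown in 96-well plates and treated with compound for 48 hours. GI50 marks 50% less growth.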 Active and inactive are the calls of the source. Cut-off read from the data, not from the text of the source: active = GI50 up to about 1.1 µM and inactive = higher. A value given as a limit tells only on which side of the number the result lay.

Test systems include MDA-N; HCC 2998; CCRF-CEM; OVCAR-4; SK-OV-3; SF-268; SW-620; IGROV-1; EKVX; HCT-116; RPMI-8226; OVCAR-5; PC-3; SK-MEL-2; BT-549; K562; SF-295; HL-60; LOX IMVI; A498.
Common to all, as to assay: growth of human tumour cells (NCI), 48 h

Take `COc1ccc(-c2nc(O)c3ccccc3n2)cc1OC`: the GI50 in the test on MDA-N is > 100 µM (inactive); in the test with HCC 2998, > 100 µM (inactive); in the test with CCRF-CEM it was > 100 µM (inactive); in the test on OVCAR-4, > 100 µM (inactive); in the test on SK-OV-3, 34.2 µM (inactive); with SF-268, 25.2 µM (inactive). Also, the GI50 in the test with SW-620 is > 100 µM (inactive); in the test with IGROV-1, 24.6 µM (inactive); with EKVX, 18.1 µM (inactive); in the test with HCT-116, > 100 µM (inactive); with RPMI-8226 it was 54.2 µM (inactive); in the test with OVCAR-5, > 100 µM (inactive). Further, the GI50 in the test on PC-3 is > 100 µM (inactive); with SK-MEL-2 it was 98.4 µM (inactive); with BT-549, 64 µM (inactive); with K562 it was > 100 µM (inactive); in the test on SF-295 it was 50.8 µM (inactive).
`O=c1c2cc([N+](=O)[O-])cnc2sn1-c1ccc(Oc2ccccc2)cc1`: the GI50 is 39.9 µM (inactive) in the test on HL-60; 78 µM (inactive) in the test on MDA-N; > 100 µM (inactive) in the test on HCC 2998; 26.9 µM (inactive) in the test on CCRF-CEM; 25.8 µM (inactive) in the test with OVCAR-4; 19.8 µM (inactive) in the test with SK-OV-3. The GI50 in the test on SF-268 was 39.6 µM (inactive); with LOX IMVI, 44.9 µM (inactive); with SW-620, 57 µM (inactive); with IGROV-1 it was 82.8 µM (inactive); in the test with EKVX it was 70.6 µM (inactive); in the test with HCT-116, 25.2 µM (inactive). In addition, the GI50 was 41.5 µM (inactive) in the test on RPMI-8226; 58.3 µM (inactive) with OVCAR-5; 39.9 µM (inactive) with PC-3; 26.7 µM (inactive) with SK-MEL-2; 52.8 µM (inactive) in the test on BT-549; 31 µM (inactive) with SF-295.
Turning to `Cc1cc2c(cc1Cl)SC(NNC(=O)c1ccccc1)=NS2(=O)=O`, the GI50 with HL-60, in the test with HCC 2998, with A498, in the test with CCRF-CEM, with OVCAR-4 and in the test on SK-OV-3 was > 10 µM (inactive) in each case. In addition, the GI50 with SF-268, in the test with LOX IMVI, in the test on SW-620, in the test on IGROV-1, in the test on EKVX and in the test on HCT-116 was > 10 µM (inactive) each time. The GI50 with RPMI-8226, with OVCAR-5, in the test on PC-3, in the test on SK-MEL-2, in the test with BT-549 and in the test on K562 was > 10 µM (inactive) throughout. The GI50 in the test on SF-295 was > 10 µM (inactive).
Consider `C=CC1(CCC(Br)C(C)(C)Cl)CO1` (stereo unspecified), for which the GI50 in the test with MDA-N, with HCC 2998, in the test with A498, in the test on CCRF-CEM, with SK-OV-3 and in the test with SF-268 was > 10 µM (inactive) each time. Further, the GI50 in the test with SW-620, in the test with IGROV-1, with EKVX, with HCT-116, in the test on RPMI-8226 and in the test with OVCAR-5 was > 10 µM (inactive) each time. Moreover, the GI50 in the test on PC-3, in the test with SK-MEL-2, in the test with BT-549, in the test on K562 and in the test with SF-295 was > 10 µM (inactive) in each case.
In the case of `O=C(Cc1ccccc1)NNc1nc(NNC(=O)c2ccncc2)nc(Nc2ccc([N+](=O)[O-])cc2)n1`, the GI50 is 8.59 µM (inactive) with MDA-N; > 10 µM (inactive) in the test on HCC 2998; > 10 µM (inactive) in the test with A498; 7.57 µM (inactive) in the test with CCRF-CEM; > 10 µM (inactive) in the test with OVCAR-4; > 10 µM (inactive) in the test with SK-OV-3. Further, the GI50 with SF-268 is > 10 µM (inactive); in the test with LOX IMVI, > 10 µM (inactive); in the test on SW-620, > 10 µM (inactive); in the test on IGROV-1, > 10 µM (inactive); in the test with EKVX, 9.46 µM (inactive); with HCT-116 it was > 10 µM (inactive). The GI50 in the test on RPMI-8226 is > 10 µM (inactive); in the test on OVCAR-5, > 10 µM (inactive); in the test with PC-3, 2.7 µM (inactive); in the test with BT-549, 9.51 µM (inactive); in the test with K562 it was 6.19 µM (inactive); in the test with SF-295, > 10 µM (inactive).
As to `O=C(c1ccccc1)N1OCCC1Nc1ccc(Br)cc1` (stereo unspecified), the GI50 in the test on HL-60 was 3.47 µM (inactive); in the test on MDA-N, 3.8 µM (inactive); with HCC 2998 it was 3.85 µM (inactive); in the test with CCRF-CEM, 3.8 µM (inactive); in the test on OVCAR-4 it was > 10 µM (inactive); in the test with SK-OV-3 it was > 10 µM (inactive). Further, the GI50 with SF-268 is 5.21 µM (inactive); in the test on LOX IMVI, > 10 µM (inactive); in the test on SW-620, 0.818 µM (active); in the test with IGROV-1, > 10 µM (inactive); with EKVX, > 10 µM (inactive); in the test with HCT-116, 4.25 µM (inactive). Further, the GI50 was 4.71 µM (inactive) in the test with RPMI-8226; > 10 µM (inactive) in the test with OVCAR-5; 2.04 µM (inactive) in the test with PC-3; > 10 µM (inactive) in the test with SK-MEL-2; > 10 µM (inactive) in the test on BT-549; 0.423 µM (active) in the test on K562. Also, in the test with SF-295, the GI50 was 2.08 µM (inactive).
Consider `O=C1/C(=C/c2ccccc2)CCCC1CN1CCCCC1` (stereo unspecified), for which the GI50 is 2.11 µM (inactive) in the test on MDA-N; 15.6 µM (inactive) in the test on HCC 2998; 16.7 µM (inactive) with A498; 2.05 µM (inactive) in the test on OVCAR-4; 17.2 µM (inactive) in the test on SK-OV-3; 1.78 µM (inactive) with SF-268. The GI50 in the test with LOX IMVI was 1.65 µM (inactive); in the test with SW-620 it was 1.33 µM (inactive); in the test with IGROV-1 it was 2.97 µM (inactive); in the test with EKVX, 15.1 µM (inactive); with HCT-116, 1.68 µM (inactive); in the test on RPMI-8226, > 100 µM (inactive). Moreover, the GI50 in the test on OVCAR-5 was 18.6 µM (inactive); in the test with PC-3, 11.4 µM (inactive); with SK-MEL-2, 4.56 µM (inactive); in the test on BT-549, 2.95 µM (inactive); in the test on SF-295, 19.1 µM (inactive).
Consider `COc1ccc(-c2cc(-c3ccc(Cl)cc3)n(C3OC(CO)C(O)C(O)C3O)c(=S)c2C#N)cc1` (stereo unspecified), for which the GI50 with MDA-N is > 100 µM (inactive); with HCC 2998, 64.9 µM (inactive); in the test on OVCAR-4, 30 µM (inactive); with SK-OV-3, > 100 µM (inactive); with SF-268, 20.6 µM (inactive); in the test on LOX IMVI it was > 100 µM (inactive). The GI50 with SW-620 was 48.2 µM (inactive); in the test on IGROV-1 it was 26.5 µM (inactive); in the test on HCT-116, 34.2 µM (inactive); in the test with RPMI-8226, 30.5 µM (inactive); with OVCAR-5, 33 µM (inactive); in the test with PC-3 it was > 100 µM (inactive). The GI50 was 26.9 µM (inactive) in the test on SK-MEL-2, 35.2 µM (inactive) with BT-549, > 100 µM (inactive) with K562 and > 100 µM (inactive) in the test on SF-295.
As for `CCC1C(NC(=O)OC)C(=O)N1[C@@H](C)c1ccccc1` (stereo partly specified), the GI50 in the test with MDA-N, with HCC 2998, in the test with A498, in the test with OVCAR-4, in the test on SK-OV-3 and in the test on SF-268 was > 100 µM (inactive) each time. Also, the GI50 with LOX IMVI, with SW-620, with IGROV-1, with EKVX, with HCT-116 and in the test on RPMI-8226 was > 100 µM (inactive) each time. The GI50 in the test with OVCAR-5, with PC-3, in the test with SK-MEL-2, in the test with BT-549, in the test on K562 and in the test with SF-295 was > 100 µM (inactive) throughout.
As to `Cc1noc(-c2ccc(C(=O)O)[nH]2)c1Br`, the GI50 in the test on MDA-N was > 100 µM (inactive); with HCC 2998, 65 µM (inactive); in the test on A498, > 100 µM (inactive); in the test with CCRF-CEM, > 100 µM (inactive); with OVCAR-4 it was 31.8 µM (inactive); in the test with SK-OV-3, 38.6 µM (inactive). Moreover, the GI50 is 46.1 µM (inactive) with SF-268; 68.9 µM (inactive) with SW-620; 16.4 µM (inactive) with IGROV-1; 30.9 µM (inactive) in the test on EKVX; 45.6 µM (inactive) in the test on HCT-116; > 100 µM (inactive) in the test with RPMI-8226. The GI50 with OVCAR-5 was > 100 µM (inactive); with PC-3 it was > 100 µM (inactive); with SK-MEL-2, 87.9 µM (inactive); with BT-549, > 100 µM (inactive); in the test on K562, > 100 µM (inactive); in the test on SF-295, 28.1 µM (inactive).
On to `O=C1NC(=O)C2(CCC(O)C2)c2cc[n+]([O-])cc21` (stereo unspecified), for which the GI50 with MDA-N, in the test with HCC 2998, in the test on A498, in the test with CCRF-CEM, in the test on OVCAR-4 and in the test on SK-OV-3 was > 100 µM (inactive) each time. Moreover, the GI50 in the test on SF-268 was > 100 µM (inactive); with LOX IMVI it was > 100 µM (inactive); in the test on SW-620, > 100 µM (inactive); in the test with IGROV-1 it was > 100 µM (inactive); in the test with EKVX, 71.8 µM (inactive); in the test on HCT-116, > 100 µM (inactive). Also, the GI50 in the test with RPMI-8226, in the test on OVCAR-5, in the test on PC-3, in the test with SK-MEL-2, in the test on BT-549 and in the test on K562 was > 100 µM (inactive) each time. For the same compound, the GI50 in the test with SF-295 is > 100 µM (inactive).
